Literature values, collected in patent US12390507B1, “Method to provide consistent product batches active components for alkaloids of kratom plants” (priority 2021, dated 2025).

Key:
[1] = tested on: opioid receptors
[2] = tested on: α2-adrenergic receptor; conditions: α2 versus α1
[3] = tested on: α1-adrenergic receptor; conditions: α1 versus α2 adrenergic receptor antagonist

CC[C@@H]1CN2CCc3c([nH]c4cccc(O)c34)[C@@H]2C[C@@H]1/C(=C\OC)C(=O)OC [9-Hydroxycorynantheidine]
maximum inhibition of electrically stimulated guinea-pig ileum contraction ([1]; compared with mitragynine): weaker than that of mitragynine
effect on electrically stimulated guinea-pig ileum contraction ([1]; one study, quoted): inhibited
effect of naloxone on the inhibition of guinea-pig ileum contraction ([1]; with naloxone): antagonized by naloxone

COC(=O)[C@H]1[C@H]2C[C@H]3c4[nH]c5ccccc5c4CCN3C[C@H]2CC[C@@H]1O [rauwolscine]
higher affinity for the α2-adrenergic receptor over the α1-adrenergic [2]: 30 ×

COC(=O)[C@@H]1[C@H]2C[C@H]3c4[nH]c5ccccc5c4CCN3C[C@@H]2CC[C@@H]1O [yohimbine]
higher affinity for the α2-adrenergic receptor over the α1-adrenergic [2]: 30 ×

Corynantheidine
greater affinity for the α1-adrenergic receptor (over α2-adrenergic receptor) [3]: 10 ×
